Results reported in patent US4985447A, “Certain benzoquinones, naphthoquinones and derivatives thereof which exhibit thromboxane A2 synthetase inhibition or receptor antagonism and the like” (Takeda Chemical Industries, Ltd., priority 1986, dated 1991).
“And” between values parts separate entries of the source, which are not always exact repeats. Identical values can stand only once.

How the values were obtained:
[1] = Improving effect on glomerulonephritis in rat; type: in vivo, rat (Sprague-Dawley); settings: for total urinary protein / urinary albumin: 50 mg/kg/day, p.o.
Procedure: Procedure: Nephritic rat was prepared according to the method of Matsunaga et al.[Folia pharmacol. japon. 78, 491,(1981)]using Sprague-Dawley rat (male, 5 weeks old). That is, the rat was immunized preliminarily by subcutaneous injection of a mixture of 3 mg of rabbit serum albumin (RSA) and an equal volume of Freund's complete adjuvant, and from two weeks after that RSA was given intravenously at the dose of 1 mg/rat three times a week for 8 weeks. Then 24 hour-urine was collected to determine total urinary protein and urinary albumin. Rats of which total urinary protein was 20 mg/100g/24hr or more were chosen for the experiment. The control group received water (vehicle) alone at 10 ml/kg/day, and the Compound No.18 group received the Compound at the dose of 50 mg/kg/day (10 ml/kg, water) once a day for 2 weeks. After 1 week and 2 weeks of treatment, 24 hour-urine was collected to determine total urinary protein and urinary albumin.

[2] = Proteinuria improving effect in rat with adriamycin-induced nephrosis; type: in vivo, rat (Sprague-Dawley)
Procedure: Procedure: The experiment was carried out with Sprague-Dawley rat (male, 5 weeks old) according to the method of T. Bertani et al.[(Laboratory Invest.4, 16, (1982)]. Adriamycin was given intravenously at the dose of 7.5 mg/kg and two weeks later urine was collected for 24 hours after water was loaded orally at 10 ml/kg. Total urinary protein and albumin excreted in the urine were determined; rats of which total urinary protein was 20 mg/100g/24 hours or more were chosen for the experiment. The control group received water (vehicle) alone at 10 ml/kg/day, and the Compound No.18 group received the Compound at the dose of 50 mg/kg/day (10 ml/kg, water) once a day for 2 weeks. After 1 week or 2 weeks of treatment with the drug, 24 hour-urine was collected to determine total urinary protein and albumin. Two weeks later blood was taken from the thoracic aorta of the rat under pentobarbital anesthesia (50 mg/kg, intraperitoneal injection) to determine plasma cholesterol level.

[3] = Toxicological study in the rat; type: in vivo, rat (male Wistar); parameters: key to Spleen: Widening of red pulp / Spleen: Congestion (dilatation of sinus) / Spleen: Extramedullary hematopoiesis / Spleen: Atrophy of white pulp / Liver: Parenchymal cell alteration / Kidney: Dilatation of pelvis / Heart: Cardiac cell alteration / Lung: Alteration / Bone marrow: Proliferation of erythroblast: -: negative; +: mild; ++: moderate; +++: severe; settings: for Adrenals weight / Body weight (B.V.) / Brains weight / Gonads weight / Heart weight / Hypophy. weight / Kidney weight / Liver weight / Lung weight / Spleen weight / Thymus weight / Thyroid weight / Bone marrow: Proliferation of erythroblast / Heart: Cardiac cell alteration / Kidney: Dilatation of pelvis / Liver: Parenchymal cell alteration / Lung: Alteration / Spleen: Atrophy of white pulp / Spleen: Congestion (dilatation of sinus) / Spleen: Extramedullary hematopoiesis / Spleen: Widening of red pulp: 2 weeks; for Adrenals weight / Body weight (B.V.) / Brains weight / Gonads weight / Heart weight / Hypophy. weight / Kidney weight / Liver weight / Lung weight / Spleen weight / Thymus weight / Thyroid weight: mean; for A/G ratio / AI.P / Albumin / Calcium / GOT / GPK / GPT / Glucose / Greatinine / LAP / LDH / Total bilirubin / Total cholesterol / Total protein / Urea nitrogen: mean ± S.D.
Procedure: Procedure: Five weeks old, male Wistar rats were used. The rats were given the Compound 18 orally once a day for 14 days at doses of 100 and 300 mg/kg/10 ml of water as a suspension with 5% gum arabic. Control rats were given vehicle (10 ml/kg of water) alone. After fasting a night following the final dose of a 2 week treatment, the rats were anesthetized with ethyl ether and the blood was collected into a heparinized syringe from the abdominal aorta and the plasma was separated for the examination of blood chemistry. Blood parameters such as total protein, glucose, calcium, urea nitrogen, creatinine, total cholesterol, total bilirubin, alkaline phosphatase (ALP), leucine aminopeptidase (LAP), lactate dehydrogenase (LDH), glutamic oxaloacetic transaminase (GOT), glutamic pyruvic transaminase (GPT), creatine phosphokinase (CPK), albumin and A/G ratio were analysed by use of auto-analyzer (Hitachi 716). The organs such as liver, kidney, heart, lung, spleen, adrenal glands, thymus, testris, brain and hypophysis were excised and weighed. Some organs (liver, kidney, heart, lung, spleen) were fixed in 10% neutral formalin solution for histological examinations. Bone marrow was fixed as well without weighing. These fixed organs were stained with Hematoxyline-Eosin for histological examinations.

[4] = 1 week after, *p<0.05 against pretreatment
[5] = 2 weeks after, *p<0.05 against pretreatment
[6] = 50 mg/kg/day, p.o., 1 week after
[7] = 50 mg/kg/day, p.o., 2 weeks after
[8] = 50 mg/kg/day, p.o., before treatment
[9] = 100 mg/kg/day, single rats No. 7-10
[10] = 300 mg/kg/day, single rats No. 11-15

In the case of CC1=C(C)C(=O)C(Cc2cccnc2)=C(C)C1=O [Compound No. 18], the “effect on nephritis (in words)” value ([1]; 50 mg/kg/day for 2 weeks) is reported as “improves nephritis”, the “total urinary protein compared with control group (in words)” value ([1]; 50 mg/kg/day for 2 weeks) is reported as “decreased total urinary protein” and the “urinary albumin compared with control group (in words)” value ([1]; 50 mg/kg/day for 2 weeks) is reported as “decreased total urinary protein and urinary albumin”. It also gave a total urinary protein [1, 4] of 37 ± 8 mg/100 g/24 hr, a urinary albumin [1, 4] of 17 ± 5 and a total urinary protein [1, 5] of 48 ± 16 mg/100 g/24 hr. The urinary albumin [1, 5] was 24 + 12, the total urinary protein ([1]; before treatment) was 75 ± 28 mg/100 g/24 hr and the urinary albumin ([1]; before treatment) was 45 ± 21. The “effect on adriamycin-induced nephrosis (in words)” value ([2]; 50 mg/kg/day for 2 weeks) was “improves adriamycin-induced nephrosis”, the “total urinary protein versus pretreatment value (in words)” value ([2]; 50 mg/kg/day for 2 weeks) was “neither total urinary protein nor urinary albumin differed from the respective pretreatment values” and the “urinary albumin versus pretreatment value (in words)” value ([2]; 50 mg/kg/day for 2 weeks) was “neither total urinary protein nor urinary albumin differed from the respective pretreatment values”. It also gave a total urinary protein [2, 6] of 55 ± 17 mg/100 g/24 hr, a urinary albumin [2, 6] of 25 ± 10 and a total urinary protein [2, 7] of 59 ± 9 mg/100 g/24 hr. The urinary albumin [2, 7] was 31 ± 7, the serum cholesterol ([2]; 50 mg/kg/day, p.o., 2 weeks after, #p<0.05 against control) was 49 ± 4 mg/dL and the total urinary protein [2, 8] was 76 ± 28 mg/100 g/24 hr. The urinary albumin [2, 8] was 28 ± 14, the “serum cholesterol level (in words)” value ([2]; after 2 weeks, 50 mg/kg/day) was “decreased remarkably” and the Adrenals weight ([3]; 100 mg/kg orally) was 47.7 mg. The “Body weight (B.V.)” value ([3]; 100 mg/kg orally) was 170.3 g, the Brains weight ([3]; 100 mg/kg orally) was 1.747 g and the Gonads weight ([3]; 100 mg/kg orally) was 1.906 g. For the same molecule, the Heart weight ([3]; 100 mg/kg orally) was 0.709 g, the Hypophy. weight ([3]; 100 mg/kg orally) was 8.3 mg and the Kidney weight ([3]; 100 mg/kg orally) was 1.579 g. For the same molecule, the Liver weight ([3]; 100 mg/kg orally) was 6.347 g, the Lung weight ([3]; 100 mg/kg orally) was 0.872 g and the Spleen weight ([3]; 100 mg/kg orally) was 0.673 g. For the same molecule, the Thymus weight ([3]; 100 mg/kg orally) was 0.45 g, the Thyroid weight ([3]; 100 mg/kg orally) was 11.4 mg and the “Bone marrow: Proliferation of erythroblast” value [3, 9] was “-”. For the same molecule, the “Heart: Cardiac cell alteration” value [3, 9] was “-”, the “Kidney: Dilatation of pelvis” value [3, 9] was “- (2×) and ++ and +” and the “Liver: Parenchymal cell alteration” value [3, 9] was “-”. For the same molecule, the “Lung: Alteration” value [3, 9] was “-”, the “Spleen: Atrophy of white pulp” value [3, 9] was “-” and the “Spleen: Congestion (dilatation of sinus)” value [3, 9] was “-”. For the same molecule, the “Spleen: Extramedullary hematopoiesis” value [3, 9] was “+”, the “Spleen: Widening of red pulp” value [3, 9] was “-” and the A/G ratio ([3]; 100 mg/kg/day) was 1.65 ± 0.05. The AI.P ([3]; 100 mg/kg/day) was 194 ± 32 U/I, the Albumin ([3]; 100 mg/kg/day) was 3.43 ± 0.05 g % and the Calcium ([3]; 100 mg/kg/day) was 9.84 ± 0.41 mg %. The GOT ([3]; 100 mg/kg/day) was 57 ± 6 U/I, the GPK ([3]; 100 mg/kg/day) was 44 ± 5 U/I and the GPT ([3]; 100 mg/kg/day) was 13 ± 1 U/I. For the same molecule, the Glucose ([3]; 100 mg/kg/day) was 104 ± 11 mg %, the Greatinine ([3]; 100 mg/kg/day) was 0.5 ± 0.0 mg % and the LAP ([3]; 100 mg/kg/day) was 20 ± 1 U/I. It also gave an LDH ([3]; 100 mg/kg/day) of 86 ± 22 U/I, a Total bilirubin ([3]; 100 mg/kg/day) of 0.27 ± 0.03 mg % and a Total cholesterol ([3]; 100 mg/kg/day) of 47 ± 7 mg %. For the same molecule, the Total protein ([3]; 100 mg/kg/day) was 5.51 ± 0.11 g %, the Urea nitrogen ([3]; 100 mg/kg/day) was 15.8 ± 0.7 mg % and the “body weight (in words)” value ([3]; 300 mg/kg) was “tended to have a lower body weight, but the change was not significant”. For the same molecule, the “splenomegaly (in words)” value ([3]; 300 mg/kg) was “one of 5 rats showed a mild splenomegaly”, the Adrenals weight ([3]; 300 mg/kg orally) was 43.0 mg and the “Body weight (B.V.)” value ([3]; 300 mg/kg orally) was 162.0 g. The Brains weight ([3]; 300 mg/kg orally) was 1.714 g, the Gonads weight ([3]; 300 mg/kg orally) was 1.873 g and the Heart weight ([3]; 300 mg/kg orally) was 0.913 g. For the same molecule, the Hypophy. weight ([3]; 300 mg/kg orally) was 8.1 mg, the Kidney weight ([3]; 300 mg/kg orally) was 1.508 g and the Liver weight ([3]; 300 mg/kg orally) was 6.264 g. The Lung weight ([3]; 300 mg/kg orally) was 0.929 g, the Spleen weight ([3]; 300 mg/kg orally) was 0.703 g and the Thymus weight ([3]; 300 mg/kg orally) was 0.447 g. The Thyroid weight ([3]; 300 mg/kg orally) was 12.0 mg, the “extramedullary hematopoiesis (in words)” value ([3]; 300 mg/kg, one of 5 rats) was “increased extramedullary hematopoiesis” and the “Bone marrow: Proliferation of erythroblast” value [3, 10] was “-”. For the same molecule, the “Heart: Cardiac cell alteration” value [3, 10] was “-”, the “Kidney: Dilatation of pelvis” value [3, 10] was “- (4×) and +” and the “Liver: Parenchymal cell alteration” value [3, 10] was “-”. For the same molecule, the “Lung: Alteration” value [3, 10] was “-”, the “Spleen: Atrophy of white pulp” value [3, 10] was “- (4×) and +” and the “Spleen: Congestion (dilatation of sinus)” value [3, 10] was “-”. For the same molecule, the “Spleen: Extramedullary hematopoiesis” value [3, 10] was “+ (4×) and ++”, the “Spleen: Widening of red pulp” value [3, 10] was “- (3×) and + (2×)” and the A/G ratio ([3]; 300 mg/kg/day) was 1.73. It also gave an AI.P ([3]; 300 mg/kg/day) of 149 U/I, an Albumin ([3]; 300 mg/kg/day) of 3.47 ± 0.13 g % and a Calcium ([3]; 300 mg/kg/day) of 9.70 ± 0.18 mg %. For the same molecule, the GOT ([3]; 300 mg/kg/day) was 64 ± 9 U/I, the GPK ([3]; 300 mg/kg/day) was 52 ± 9 U/I and the GPT ([3]; 300 mg/kg/day) was 14 ± 1 U/I. It also gave a Glucose ([3]; 300 mg/kg/day) of 97 ± 11 mg %, a Greatinine ([3]; 300 mg/kg/day) of 0.4 ± 0.1 mg % and an LAP ([3]; 300 mg/kg/day) of 19 ± 1 U/I. The LDH ([3]; 300 mg/kg/day) was 99 ± 18 U/I, the Total bilirubin ([3]; 300 mg/kg/day) was 0.28 ± 0.02 mg % and the Total cholesterol ([3]; 300 mg/kg/day) was 41 ± 14 mg %. The Total protein ([3]; 300 mg/kg/day) was 5.48 ± 0.20 g %, the Urea nitrogen ([3]; 300 mg/kg/day) was 14.5 ± 0.6 mg % and the “blood chemistry (in words)” value ([3]; 100 and 300 mg/kg) was “no changes in the blood chemistry”. For the same molecule, the “organ weight (in words)” value ([3]; 100 and 300 mg/kg) was “no significant changes in any organ weight” and the “histology of the other organs (in words)” value ([3]; after 2 weeks) was “The other organs showed no changes”.
